Laboratory results taken from US4080471A, “Use of substituted isopropylaminopropanols for inducing inotropic effects of the human heart” (priority 1976, dated 1978).
Entries after “also recorded” stand apart in the source; their conditions may differ.

Columns and labels:
[1] = system: heart; experiment: Effect on heart chronotropy and inotropy of a conscious dog
Source text: During anesthesia a catheter was introduced in the aorta, an electromagnetic flow probe was placed around the ascending aorta, and induction coils were placed diametrically on the inside of the left ventricle. The experiments were started about 2 weeks after the incision, when the dog had recovered completely.
When the dog was resting, the arterial blood pressure, the flow in the aorta, the maximum flow acceleration in the aorta (maximum dF/dt), heart frequency, the diameter of the left ventricle, and ECG were registered. The effects of compounds I and II were registered at 10, 20, and 30 minutes after administration. […] The compounds were given intravenously in the following doses. […] In order to eliminate vagal influence on the heart the dog was pretreated with methyl scopolamine 0.012 mg/kg bodyweight intramuscularily 20 minutes before the administration of the compounds. From the data giving the diameter of the left ventricle, the end diastolic volume was calculated according to E. W. Hawthorne. Mean ejection rate (ml/sec.) was calculated by dividing the stroke volume with the ejection time. […] The values given are the percentage changes after administration when the heart frequency has increased 10 beats per minute, values interpolated. […] In order to compare the inotropic effects of ouabain with those of the other compounds, the heart was stimulated in these experiments by electric pacing to a frequency which was 10 beats/minute above that registered before administration.
In order to investigate the absorption and duration of the effect, compounds I and II were given orally in an amount of 100 μg/kg bodyweight.

[2] = system: heart; experiment: Effect on heart contractility (maximum dP/dt) of the anesthetized dog; type: in vivo
Source text: Effects of Compound I and Ouabain On the Heart Contractility and Rhythmicity of the Anesthetized Dog
The object of the test was to compare compound I and oubain administered alone and in combination with each other to study the inotropic effect (maximum dP/dt in the left ventricle) and a possibly arrhythmic effect. The latter included an investigation of the ability of the compounds to cause repetitive ventricular response (RVR) when the heart was electrically stimulated via an electrode on the ventricle at the electrically vulnerable phase at the end of the T-wave. Klein et al. (M. Klein, N. S. Nejad, B. Lown, F. Hagemeijer and I. Blair, Circulation Research, 29, 635 (1971)) have shown that digitalis caused RVR at a dose which was about 70% of the dose giving spontaneous ventricular arrhythmias.
The dog was anesthetized with Mebumal® 30 mg/kg bodyweight i.v. Artificial respiration was applied. The sinus-node was electrocoagulated and the heart frequency was kept constant at 180 beats/minute in each test by electrical pacing of the auricle. Mean arterial blood pressure was registered from the carotis artery. ECG was registered during the test. Further, the pressure in the left ventricle was registered via a catheter inserted through the apex and connected to a pressure transducer. The intraventricular pressure curve was derivated to obtain maximum dP/dt which is a measure of the contractile force of the heart.
The test was started with a series of control registrations, whereupon the compounds were administered 3 times by infusion during five minutes and with an interval of 50 minutes between each infusion.
In the experiment with compound I only, the compound was administered in two doses of 10 μg/kg bodyweight and then one dose of 20 μg/kg bodyweight. Ouabain was given in 3 consecutive doses of 20 μg/kg bodyweight. In the combination test ouabain was first given in a dose of 20 μg/kg bodyweight followed by two doses of compound I of 10 and 20 μg/kg bodyweight, respectively.

[3] = change i.v. at heart frequency +10 beats/min, interpolated, ouabain 30 μg/kg i.v., paced
[4] = 20 minutes after administration, ouabain versus compound I
[5] = anesthetized dog, i.v. infusion

## CC(C)NCC(O)COc1ccc(O)cc1 (stereo not drawn) [Compound I, 1-isopropylamino-3-(p-hydroxyphenoxy)-propanol-2]
[1]; 100 μg/kg bodyweight orally
  time of maximum effect, oral: 30 min
[1]; change i.v. at heart frequency +10 beats/min, interpolated, calculated from left ventricle diameter, ouabain 30 μg/kg i.v., paced
  Enddiastolic volume: -9%
[1]; change i.v. at heart frequency +10 beats/min, interpolated, methyl scopolamine pretreated, ouabain 30 μg/kg i.v., paced
  Stroke volume: 5%
[1]; [3]
  Mean arterial blood pressure: 0 mm Hg
  Peak aortic flow: 22%
[1]; change i.v. at heart frequency +10 beats/min, interpolated, stroke volume / ejection time, ouabain 30 μg/kg i.v., paced
  Mean ejection rate: 13%
[1]; conscious dog, I and II 10 and 20 μg/kg, ouabain 30 μg/kg i.v.
  side effects: No side effect was observed
[1]; i.v.
  contractility / inotropic effect in conscious dog (in words): clear inotropic effect without any significant increase of the heart frequency; also recorded: increases the contractility of the left ventricle
[1]; maximum flow acceleration in aorta, change i.v. at heart frequency +10 beats/min, interpolated, ouabain 30 μg/kg i.v., paced
  Max. dF/dt: 43%
[1]; oral, 100 μg/kg bodyweight
  oral effect (in words): good inotropic effect when administered perorally and an acceptable duration of action; also recorded: comparable with those obtained after intravenous administration of 20 μg/kg bodyweight
[1]; versus relatively high dose of ouabain
  positive inotropic effect compared with ouabain (in words): quite comparable to the effect of a high dose of ouabain; also recorded: comparable to the effect of the relatively high dose of ouabain
[2]; 20 minutes after administration
  increase of aortic blood pressure: no effect
[2]; [4]
  doses giving approximately the same level of maximum dP/dt (lower pair): about 10 μg/kg bodyweight
  doses giving corresponding effect on maximum dP/dt (higher pair): 20 μg/kg bodyweight
[2]; [5]
  effect on maximum dP/dt (in words): increased the maximum dP/dt
  onset of effect on maximum dP/dt: immediate
  reduction of effect on maximum dP/dt after 50 minutes: almost completely reduced after 50 minutes
[2]; at same increase of maximum dP/dt
  ventricular contractility compared with ouabain (in words): increased the ventricular contractility a little more than ouabain
